Data reported in patent publication US12673041B2, “4-aminobut-2-enamide derivatives and salt thereof” (TAIHO PHARMACEUTICAL CO., LTD., priority 2019, dated 2026).
Read-outs that look alike come from different tables or passages of the source.

Tests used:
[1] = test system: MIA PaCa-2 cells; test: Growth inhibition activity on KRAS-G12C mutant cell line (MIA PaCa-2); type: cell-based; details: Homo sapiens, 72 h; MIA PaCa-2, 3-day culture, CellTiter-Glo 3D
Experimental: MIA PaCa-2 cells (given by Sumitomo Dainippon Pharma Co., Ltd.), which are a KRAS-G12C mutant human pancreas cancer cell line, were suspended in a 10% fetal bovine serum-containing RPMI1640 medium (manufactured by Fujifilm Wako Pure Chemical Corporation.). The cell suspension was seeded into each well of a 384-well U bottom microplate and cultured in an incubator containing 5% CO2 gas at 37° C. for 1 day. The compounds obtained in the “Preparation of Compounds” section were used as test compounds and were dissolved in DMSO, respectively, and each test compound was diluted with DMSO to give a concentration 500 times the final concentration. The resultant solution of the test compound in DMSO was diluted with the medium used for suspending cells and added to each well of the cell-culture plate to give a DMSO final concentration of 0.2%, followed by culture in an incubator containing 5% CO2 gas at 37° C. for another 3 days. The cell count after 3-day culture in the presence of the test compound was measured using CellTiter-Glo 3D Reagent (manufactured by Promega Corporation). All wells were added with CellTiter-Glo 3D Reagent and mixed for 10 minutes. 30 minutes after mixing, luminescence was measured by a plate reader. The growth inhibition rate was calculated from the following equation, and the concentration of the test compound at which 50% inhibition was achieved (IC50 (nM)) was determined. […] Growth Inhibition Rate (%)=(C−T)/(C)×100 • T: the emission intensity in a well into which a test compound was added. • C: the emission intensity in a well into which a test compound was not added.

[2] = molecular target: Gppcp-bound recombinant K-Ras4B G12C mutant protein (amino acids 1-169, C51S/C80L/C118S) (Homo sapiens, UniProt P01116, C118S/C51S/C80L/G12C); test: KRASG12C binding assay (LC-MS compound binding rate); details: test compound final concentration 0.5 μM, 25° C., 1 hour
Procedure, shortened: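 Gppcp-bound K-Ras4B G12C (aa 1-169, C51S/C80L/C118S) at 50 nM in 1×TBS, 0.1 mM TCEP, 0.25 mM MgCl2, 50 μM Gppcp was incubated 1 hour at 25° C with compound at 0.5 μM final. Intact-protein LC-MS gave binding rate as single-adduct signal over total KRAS signal, graded A (≥80%) to E (<20%).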

[3] = molecular target: T1, GMPPNP-bound KRAS G12C protein and cRAF RAS-binding domain (cRAF-RBD) (Homo sapiens, UniProt P01116, G12C); test: Inhibitory activity on interaction between KRAS G12C and cRAF (Alpha technology); type: biochemical; details: then cRAF-RBD, Alpha signal
T1 construct: made in house; host or cells: E. coli
Procedure, shortened: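 GMPPNP-loaded His-KRAS G12C (aa 1-169) preincubated 1 h at 25 °C with compound (pH 7.5 Tris, 1 mM MgCl2, TCEP, Tween 20), then cRAF-RBD (aa 50-132) and Alpha reagents added for 1.5 h at RT. Inhibition scaled between DMSO (0%) and GDP-bound KRAS (100%); IC50 by curve fitting.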

[4] = GMPPNP-bound KRAS G12C incubated with compound at 25° C. for 1 hour, read-out: IC50

SMILES | IC50 [1] [nM] | binding rate [2] | IC50 [3, 4] [nM] | IC50 ([3]; IC50, GMPPNP-bound KRAS G12C incubated with compound at 25° C. for 1 hour) [nM]
CCc1nc2cc(-c3cccn4c(C(=O)c5ccc(NC(=O)/C=C/CN[C@H]6CC[C@H](OC)CC6)c(C#N)c5)ccc34)c(C(F)(F)F)cc2n1C [Example 33, (E)-N-(2-cyano-4-(8-(2-ethyl-1-methyl-6-(trifluoromethyl)-1H-benzo[d]imidazol-5-yl)indolizine-3-carbonyl)phenyl)-4-(((1r,4r)-4-methoxycyclohexyl)amino)but-2-enamide] | 48 | A (A binding rate of 80% or more is rated “A”) | 45 | –
CO[C@H]1CC[C@H](NC/C=C/C(=O)Nc2ccc(C(=O)Nc3cccc(-c4cc5nc6n(c5cc4C(F)(F)F)CCC6)n3)cc2C#N)CC1 [Example 34, 3-cyano-4-((E)-4-(((1r,4r)-4-methoxycyclohexyl)amino)but-2-enamido)-N-(6-(7-(trifluoromethyl)-2,3-dihydro-1H-benzo[d]pyrrolo[1,2-a]imidazol-6-yl)pyridin-2-yl)benzamide] | 92 | A (A binding rate of 80% or more is rated “A”) | 31 | –
CO[C@H]1CC[C@H](NC/C=C/C(=O)Nc2ccc(C(=O)c3c[nH]c4c(-c5cc6nc7n(c6cc5C(F)(F)F)CCC7)cccc34)cc2C#N)CC1 [Example 35, (E)-N-(2-cyano-4-(7-(7-(trifluoromethyl)-2,3-dihydro-1H-benzo[d]pyrrolo[1,2-a]imidazol-6-yl)-1H-indole-3-carbonyl)phenyl)-4-(((1r,4r)-4-methoxycyclohexyl)amino)but-2-enamide] | 39 | A (A binding rate of 80% or more is rated “A”) | 19 | –
CO[C@H]1CC[C@H](NC/C=C/C(=O)Nc2ccc(C(=O)c3ccc4c(-c5cc6ncn(C)c6cc5C(F)F)cccn34)cc2C#N)CC1 [Example 36, (E)-N-(2-cyano-4-(8-(6-(difluoromethyl)-1-methyl-1H-benzo[d]imidazol-5-yl)indolizine-3-carbonyl)phenyl)-4-(((1r,4r)-4-methoxycyclohexyl)amino)but-2-enamide] | 70 | A (A binding rate of 80% or more is rated “A”) | 23 | –
CCN(CC)[C@H]1CC[C@H](NC/C=C/C(=O)Nc2ccc(C(=O)Nc3cccc(-c4cc5nc6n(c5cc4C(F)(F)F)CCC6)n3)cc2C#N)CC1 [Example 37, 3-cyano-4-((E)-4-(((1r,4r)-4-(diethylamino)cyclohexyl)amino)but-2-enamido)-N-(6-(7-(trifluoromethyl)-2,3-dihydro-1H-benzo[d]pyrrolo[1,2-a]imidazol-6-yl)pyridin-2-yl)benzamide] | 550 | A (A binding rate of 80% or more is rated “A”) | 12 | –
CO[C@H]1CC[C@H](NC/C=C/C(=O)Nc2ccc(C(=O)c3cn(C)c4c(-c5cc6ncn(C)c6cc5C(F)(F)F)cccc34)cc2C#N)CC1 [Example 38, (E)-N-(2-cyano-4-(1-methyl-7-(1-methyl-6-(trifluoromethyl)-1H-benzo[d]imidazol-5-yl)-1H-indole-3-carbonyl)phenyl)-4-(((1r,4r)-4-methoxycyclohexyl)amino)but-2-enamide] | 88 | A (A binding rate of 80% or more is rated “A”) | – | 67
COc1cccc(Cl)c1-c1cccn2c(C(=O)c3ccc(NC(=O)/C=C/CN[C@H]4CC[C@H](OC)CC4)c(C#N)c3)ccc12 [Example 41, (E)-N-(4-(8-(2-chloro-6-methoxyphenyl)indolizine-3-carbonyl)-2-cyanophenyl)-4-(((1r,4r)-4-methoxycyclohexyl)amino)but-2-enamide] | 370 | A (A binding rate of 80% or more is rated “A”) | 85 | –
Cn1cnc2cc(-c3cccn4c(C(=O)c5ccc(NC(=O)/C=C/[C@@H]6CCCN6)c(C#N)c5)ccc34)c(C(F)(F)F)cc21 [Example 44, (S,E)-N-(2-cyano-4-(8-(1-methyl-6-(trifluoromethyl)-1H-benzo[d]imidazol-5-yl)indolizine-3-carbonyl)phenyl)-3-(pyrrolidin-2-yl) acrylamide] | 350 | A (A binding rate of 80% or more is rated “A”) | 61 | –
Cn1cnc2cc(-c3cccn4c(C(=O)c5cc(F)c(NC(=O)/C=C/CNC(C)(C)C)c(F)c5)ccc34)c(C(F)(F)F)cc21 [Example 49, (2E)-4-(tert-Butylamino)-N-(2,6-difluoro-4-{8-[1-methyl-6-(trifluoromethyl)-1H-1,3-benzodiazol-5-yl]indolizine-3-carbonyl}phenyl)but-2-enamide] | 75 | A (A binding rate of 80% or more is rated “A”) | 31 | –
Cn1cnc2cc(-c3cccn4c(C(=O)c5ccc(NC(=O)/C=C/CNC(C)(C)C)c(F)c5)ccc34)c(C(F)(F)F)cc21 [Example 51, (2E)-4-(tert-Butylamino)-N-(2-fluoro-4-{8-[1-methyl-6-(trifluoromethyl)-1H-1,3-benzodiazol-5-yl]indolizine-3-carbonyl}phenyl)but-2-enamide] | 170 | B (a binding rate of 60% or more and less than 80% is rated “B”) | 95 | –
Cn1cnc2c(Cl)c(-c3cccn4c(C(=O)c5ccc(NC(=O)/C=C/CNC(C)(C)C)c(C#N)c5)ccc34)c(Cl)cc21 [Example 55, (E)-4-(tert-butylamino)-N-(2-cyano-4-(8-(4,6-dichloro-1-methyl-1H-benzo[d]imidazol-5-yl)indolizine-3-carbonyl)phenyl)but-2-enamide] | 140 | A (A binding rate of 80% or more is rated “A”) | 21 | –
CO[C@H]1CC[C@H](NC/C=C/C(=O)Nc2ccc(C(=O)c3csc4c(-c5cc6ncn(C)c6cc5C)cccc34)cc2C#N)CC1 [Example 56, (E)-N-(2-cyano-4-(7-(1,6-dimethyl-1H-benzo[d]imidazol-5-yl)benzo[b]thiophene-3-carbonyl)phenyl)-4-(((1r,4r)-4-methoxycyclohexyl)amino)but-2-enamide] | 350 | A (A binding rate of 80% or more is rated “A”) | 86 | –
Cc1cc2c(ncn2C)c(Cl)c1-c1cccn2c(C(=O)c3ccc(NC(=O)/C=C/CNC(C)(C)C)c(C#N)c3)ccc12 [Example 59, (E)-4-(tert-butylamino)-N-(4-(8-(4-chloro-1,6-dimethyl-1H-benzo[d]imidazol-5-yl)indolizine-3-carbonyl)-2-cyanophenyl)but-2-enamide] | 64 | A (A binding rate of 80% or more is rated “A”) | 19 | –
CO[C@H]1CC[C@H](NC/C=C/C(=O)Nc2ccc(C(=O)c3ccc4c(-c5c(C)cc6c(ncn6C)c5Cl)cccn34)cc2C#N)CC1 [Example 60, (E)-N-(4-(8-(4-chloro-1,6-dimethyl-1H-benzo[d]imidazol-5-yl)indolizine-3-carbonyl)-2-cyanophenyl)-4-(((1r,4r)-4-methoxycyclohexyl)amino)but-2-enamide] | 59 | A (A binding rate of 80% or more is rated “A”) | 20 | –
CO[C@H]1CC[C@H](NC/C=C/C(=O)Nc2ccc(C(=O)c3ccc4c(-c5c(C)cc6c(ncn6C)c5C(C)C)cccn34)cc2C#N)CC1 [Example 64, (E)-N-(2-cyano-4-(8-(4-isopropyl-1,6-dimethyl-1H-benzo[d]imidazol-5-yl)indolizine-3-carbonyl)phenyl)-4-(((1r,4r)-4-methoxycyclohexyl)amino)but-2-enamide] | 69 | A (A binding rate of 80% or more is rated “A”) | 82 | –
CN(C)C/C=C/C(=O)Nc1ccc(C(=O)c2ccc3c(-c4cc5ncn(C)c5cc4C(F)(F)F)cccn23)cc1C#N [Example 66, (E)-N-(2-cyano-4-(8-(1-methyl-6-(trifluoromethyl)-1H-benzo[d]imidazol-5-yl)indolizine-3-carbonyl)phenyl)-4-(dimethylamino)but-2-enamide] | 240 | C (a binding rate of 40% or more and less than 60% is rated “C”) | 84 | –
